Test results: patent US20250163104A1, “MACROCYCLIC IMMUNOMODULATORS” (priority 2021, published 2025)
Where a SMILES comes first, the peptide text is derived from it. Bridges are numbered along the chain shown (N, C = ends). [ ]: non-standard residue; d: D form. The star is where a group is joined. ξ: configuration not given here. Bip = N[C@@H](Cc1ccc(-c2ccccc2)cc1)C(=O)O; Phe(3-Me) = Cc1cccc(C[C@H](N)C(=O)O)c1; NMehPhe = CN[C@@H](CCc1ccccc1)C(=O)O; Val(3-OH) = CC(C)(O)[C@H](N)C(=O)O; 4Pal = N[C@@H](Cc1ccncc1)C(=O)O; Cha = N[C@@H](CC1CCCCC1)C(=O)O; Cit = NC(=O)NCCC[C@H](N)C(=O)O; Thr(3ξ) = CC(O)[C@H](N)C(=O)O; NMeNle = CCCC[C@H](NC)C(=O)O; Carboxymethyl = O=C(O)C*; Orn = NCCC[C@H](N)C(=O)O; Pra = C#CC[C@H](N)C(=O)O; Dab = NCC[C@H](N)C(=O)O; Dap = NC[C@H](N)C(=O)O; ξPra = C#CCC(N)C(=O)O

Molecular target: T1, human PD-1 / PD-L1-Ig binding on Jurkat cell line over-expressing human PD-1 (Jurkat-PD-1) (Homo sapiens, UniProt Q15116)
T1 construct: expressed in transfected cells; host or cells: Jurkat
T1 sequence (Q15116 25-288): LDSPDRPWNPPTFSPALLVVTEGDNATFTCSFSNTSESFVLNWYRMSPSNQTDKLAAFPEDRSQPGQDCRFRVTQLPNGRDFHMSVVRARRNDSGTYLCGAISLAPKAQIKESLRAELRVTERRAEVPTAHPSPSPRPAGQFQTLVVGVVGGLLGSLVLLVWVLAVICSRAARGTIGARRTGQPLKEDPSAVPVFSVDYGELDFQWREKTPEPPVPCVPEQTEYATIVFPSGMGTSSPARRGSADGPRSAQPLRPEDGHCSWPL
Experiment: Jurkat-PD-1 Cell Binding High-Content Screening Assay (CBA)
Type: cell-based
Settings: Jurkat-PD-1 cells, PE-labeled PD-L1-Ig 20 nM final; read-out: Jurkat HPD1_PDL1 IC50
Outline: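 Compounds were preincubated with Jurkat-hPD-1 cells in DMEM plus 10% fetal calf serum for 2 h at 37° C. Phycoerythrin-labeled PD-L1-Ig (20 nM final) was then added for 1 hour. Cells were fixed in 4% paraformaldehyde with Hoechst 33342, and bound fluorescence was quantified by high-content imaging.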

Row | SMILES | IC50
1 | CC(C)C[C@H]1NC(=O)[C@H](CCCN)NC(=O)[C@H](CCC(=O)O)NC(=O)[C@H](Cc2ccc(-c3ccccc3)cc2)NC(=O)[C@H](C(C)C)NC(=O)[C@H](Cc2cccc(C(F)(F)F)c2)NC(=O)[C@H](CC(=O)O)NC(=O)[C@H](Cc2ccc(OCC(=O)O)cc2)NC(=O)[C@H](CN)NC(=O)CSC[C@@H](C(=O)N[C@@H](C)C(N)=O)NC(=O)[C@H]([C@@H](C)O)NC(=O)[C@H](C(C)C)NC(=O)[C@H](CC2CCCCC2)NC(=O)[C@H](CCN)NC1=O [Compound 1458] | 17.9 nM
2 | CCCC[C@H]1C(=O)N[C@@H](Cc2ccc(OCC(=O)O)cc2)C(=O)N[C@@H](CC(=O)O)C(=O)N[C@@H](Cc2cccc(C)c2)C(=O)N[C@@H](C(C)C)C(=O)N[C@@H](Cc2ccc(-c3ccccc3)cc2)C(=O)N[C@@H](C(C)O)C(=O)N[C@@H](CCCN)C(=O)N[C@H](CC(C)C)C(=O)N[C@@H](CCN)C(=O)N[C@@H](CC2CCCCC2)C(=O)N[C@@H](C(C)C)C(=O)N[C@@H](C(C)O)C(=O)N[C@H](C(=O)N[C@@H](CC(N)=O)C(N)=O)CSCC(=O)N1C (stereo partly drawn) [Compound 2553] ({CH2CO}-[NMeNle]Y(Carboxymethyl)D[Phe(3-Me)]V[Bip][Thr(3ξ)][Orn][dL][Dab][Cha]V[Thr(3ξ)]CN-NH2; thioether N-14) | 24.6 nM
3 | CC(C)C[C@@H]1NC(=O)[C@H](Cc2c[nH]c3ccccc23)NC(=O)[C@H](CC(=O)O)NC(=O)[C@H](Cc2ccc(O)cc2)NC(=O)[C@H](Cc2ccccc2)NC(=O)CSC[C@@H](C(=O)N[C@@H](C)C(N)=O)NC(=O)[C@H](CO)NC(=O)[C@H](C(C)C)NC(=O)[C@H](CC(C)C)NC(=O)[C@H](CC(N)=O)NC(=O)[C@@H](C)NC(=O)[C@H](CCN)NC(=O)[C@H](C(C)C)NC(=O)[C@H](Cc2ccc(-c3ccccc3)cc2)NC1=O [Compound 1100] ({CH2CO}-FYDWL[Bip]V[Dab][dA]NLVSCA-NH2; thioether N-14) | 41.4 nM
4 | CC(C)C[C@H]1NC(=O)[C@H](CCCN)NC(=O)[C@H](C(C)C)NC(=O)[C@H](Cc2ccc(-c3ccccc3)cc2)NC(=O)[C@H](C(C)C)NC(=O)[C@H](Cc2c[nH]c3ccccc23)NC(=O)[C@H](CC(=O)O)NC(=O)[C@H](Cc2ccc(OCC(=O)O)cc2)NC(=O)[C@H](CN)NC(=O)CSC[C@@H](C(=O)N[C@@H](C)C(N)=O)NC(=O)[C@H]([C@@H](C)O)NC(=O)[C@H](C(C)C)NC(=O)[C@H](CC2CCCCC2)NC(=O)[C@H](CC(N)=O)NC1=O [Compound 1519] ({CH2CO}-[Dap]Y(Carboxymethyl)DWV[Bip]V[Orn][dL]N[Cha]VTCA-NH2; thioether N-14) | 7.7 nM
5 | C#CC[C@H](NC(=O)[C@H](CCN)NC(=O)[C@@H]1CSCC(=O)N[C@@H](CN)C(=O)N[C@@H](Cc2ccc(OCC(=O)O)cc2)C(=O)N[C@@H](CC(=O)O)C(=O)N[C@@H](Cc2cccc(C)c2)C(=O)N[C@@H](Cc2ccc(OCC(=O)O)cc2)C(=O)N[C@@H](Cc2ccc(-c3ccccc3)cc2)C(=O)N[C@@H](Cc2ccc(OCC(=O)O)cc2)C(=O)N[C@@H](CCCN)C(=O)N[C@H](CC(C)C)C(=O)N[C@@H](CCN)C(=O)N[C@@H](CC2CCCCC2)C(=O)N[C@@H](C(C)(C)O)C(=O)N[C@@H]([C@@H](C)O)C(=O)N1)C(N)=O [Compound 1858] ({CH2CO}-[Dap]Y(Carboxymethyl)D[Phe(3-Me)]Y(Carboxymethyl)[Bip]Y(Carboxymethyl)[Orn][dL][Dab][Cha][Val(3-OH)]TC[Dab][Pra]-NH2; thioether N-14) | 5 nM
6 | CC(C)C[C@@H]1NC(=O)[C@H](CCN)NC(=O)[C@@H](CC(C)C)NC(=O)[C@H](CCN)NC(=O)[C@H](C(C)C)NC(=O)[C@H](Cc2ccc(-c3ccccc3)cc2)NC(=O)[C@H](C(C)C)NC(=O)[C@H](Cc2c[nH]c3ccccc23)NC(=O)[C@H](CC(N)=O)NC(=O)[C@H](Cc2ccc(O)cc2)NC(=O)[C@H](CC(N)=O)NC(=O)CSC[C@@H](C(=O)NCC(N)=O)NC(=O)[C@H](CO)NC(=O)[C@H](C(C)C)NC1=O [Compound 1083] ({CH2CO}-NYNWV[Bip]V[Dab][dL][Dab]LVSCG-NH2; thioether N-14) | 16.8 nM
7 | CC(C)C[C@H]1NC(=O)[C@H](CCCN)NC(=O)[C@H](CCCNC(N)=O)NC(=O)[C@H](Cc2ccc(-c3ccccc3)cc2)NC(=O)[C@H](C(C)C)NC(=O)[C@H](Cc2c[nH]c3ccccc23)NC(=O)[C@H](CC(=O)O)NC(=O)[C@H](Cc2ccc(OCC(=O)O)cc2)NC(=O)[C@H](CN)NC(=O)CSC[C@@H](C(=O)N[C@@H](C)C(N)=O)NC(=O)[C@H]([C@@H](C)O)NC(=O)[C@H](C(C)C)NC(=O)[C@H](CC2CCCCC2)NC(=O)[C@H](Cc2c[nH]cn2)NC1=O [Compound 1590] ({CH2CO}-[Dap]Y(Carboxymethyl)DWV[Bip][Cit][Orn][dL]H[Cha]VTCA-NH2; thioether N-14) | 9 nM
8 | CC(C)C[C@H]1NC(=O)[C@H](CCCN)NC(=O)[C@H](C(C)C)NC(=O)[C@H](Cc2ccc(-c3ccccc3)cc2)NC(=O)[C@H](C(C)C)NC(=O)[C@H](Cc2c[nH]c3ccccc23)NC(=O)[C@H](CC(=O)O)NC(=O)[C@H](Cc2ccc(OCC(=O)O)cc2)NC(=O)[C@H](CCc2ccccc2)N(C)C(=O)CSC[C@@H](C(=O)N[C@@H](C)C(N)=O)NC(=O)[C@H](CO)NC(=O)[C@H](C(C)C)NC(=O)[C@H](CC2CCCCC2)NC(=O)[C@H](CCN)NC1=O [Compound 2516] ({CH2CO}-[NMehPhe]Y(Carboxymethyl)DWV[Bip]V[Orn][dL][Dab][Cha]VSCA-NH2; thioether N-14) | 10 nM
9 | CC(C)C[C@H]1NC(=O)[C@H](CCCN)NC(=O)[C@H](C(C)C)NC(=O)[C@H](Cc2ccc(-c3ccccc3)cc2)NC(=O)[C@H](C(C)C)NC(=O)[C@H](Cc2c[nH]c3ccccc23)NC(=O)[C@H](CC(=O)O)NC(=O)[C@H](Cc2ccc(OCC(=O)O)cc2)NC(=O)[C@H](Cc2ccc(OCC(=O)O)cc2)NC(=O)CSC[C@@H](C(=O)N[C@@H](C)C(N)=O)NC(=O)[C@H](CCCNC(=N)N)NC(=O)[C@H](C(C)C)NC(=O)[C@H](CC2CCCCC2)NC(=O)[C@H](CCN)NC1=O [Compound 1749] ({CH2CO}-Y(Carboxymethyl)Y(Carboxymethyl)DWV[Bip]V[Orn][dL][Dab][Cha]VRCA-NH2; thioether N-14) | 4.2 nM

Second part, the compound after the results:

Row | IC50 | SMILES
10 | 32.8 nM | CC(C)C[C@H]1NC(=O)[C@H](CCCN)NC(=O)[C@H](C(C)C)NC(=O)[C@H](Cc2ccc(-c3ccccc3)cc2)NC(=O)[C@H](C(C)C)NC(=O)[C@H](Cc2c[nH]c3ccccc23)NC(=O)[C@H](CC(=O)O)NC(=O)[C@H](Cc2ccc(C(=O)O)cc2)NC(=O)[C@H](Cc2ccc(OCC(=O)O)cc2)NC(=O)CSC[C@@H](C(=O)N[C@@H](C)C(N)=O)NC(=O)[C@H]([C@@H](C)O)NC(=O)[C@H](C(C)C)NC(=O)[C@H](CC2CCCCC2)NC(=O)[C@H](CCN)NC1=O [Compound 1691]
11 | 24 nM | C#CCC(NC(=O)[C@H](Cc1cnc[nH]1)NC(=O)[C@@H]1CSCC(=O)N[C@@H](Cc2ccncc2)C(=O)N[C@@H](Cc2ccc(OCC(=O)O)cc2)C(=O)N[C@@H](CC(=O)O)C(=O)N[C@@H](Cc2c[nH]c3ccccc23)C(=O)N[C@@H](C(C)C)C(=O)N[C@@H](Cc2ccc(-c3ccccc3)cc2)C(=O)N[C@@H]([C@@H](C)CC)C(=O)N[C@@H](CCCN)C(=O)N[C@H](CC(C)C)C(=O)N[C@@H](CCN)C(=O)N[C@@H](CC(C)C)C(=O)N[C@@H](C(C)C)C(=O)N[C@@H]([C@@H](C)O)C(=O)N1)C(N)=O (stereo partly drawn) [Compound 1763] ({CH2CO}-[4Pal]Y(Carboxymethyl)DWV[Bip]I[Orn][dL][Dab]LVTCH[ξPra]-NH2; thioether N-14)
12 | 17.4 nM | CC(C)C[C@@H]1NC(=O)[C@H](Cc2c[nH]c3ccccc23)NC(=O)[C@H](CC(=O)O)NC(=O)[C@H](Cc2ccc(O)cc2)NC(=O)[C@H](Cc2ccccc2)NC(=O)CSC[C@@H](C(=O)NCC(N)=O)NC(=O)[C@H]([C@@H](C)O)NC(=O)[C@H](C(C)C)NC(=O)[C@H](CC(C)C)NC(=O)[C@H](CCN)NC(=O)[C@@H](CC(C)C)NC(=O)[C@H](CCCN)NC(=O)[C@H](C(C)C)NC(=O)[C@H](Cc2ccc(-c3ccccc3)cc2)NC1=O [Compound 1068] ({CH2CO}-FYDWL[Bip]V[Orn][dL][Dab]LVTCG-NH2; thioether N-14)
13 | 22.3 nM | CC(C)C[C@@H]1NC(=O)[C@H](CCN)NC(=O)[C@@H](CC(C)C)NC(=O)[C@H](CCCN)NC(=O)[C@H](CCCNC(=N)N)NC(=O)[C@H](Cc2ccc(-c3ccccc3)cc2)NC(=O)[C@H](C(C)C)NC(=O)[C@H](Cc2c[nH]c3ccccc23)NC(=O)[C@H](CC(=O)O)NC(=O)[C@H](Cc2ccncc2)NC(=O)[C@H](CN)NC(=O)CSC[C@@H](C(=O)N[C@@H](C)C(N)=O)NC(=O)[C@H]([C@@H](C)O)NC(=O)[C@H](C(C)C)NC1=O [Compound 1244] ({CH2CO}-[Dap][4Pal]DWV[Bip]R[Orn][dL][Dab]LVTCA-NH2; thioether N-14)
14 | 16.7 nM | C#CCC(NC(=O)[C@H](CCCCN)NC(=O)[C@@H]1CSCC(=O)N[C@@H](Cc2ccncc2)C(=O)N[C@@H](Cc2ccc(OCC(=O)O)cc2)C(=O)N[C@@H](CC(=O)O)C(=O)N[C@@H](Cc2c[nH]c3ccccc23)C(=O)N[C@@H](C(C)C)C(=O)N[C@@H](Cc2ccc(-c3ccccc3)cc2)C(=O)N[C@@H]([C@@H](C)CC)C(=O)N[C@@H](CCCN)C(=O)N[C@H](CC(C)C)C(=O)N[C@@H](CCN)C(=O)N[C@@H](CC(C)C)C(=O)N[C@@H](C(C)C)C(=O)N[C@@H]([C@@H](C)O)C(=O)N1)C(N)=O (stereo partly drawn) [Compound 1767] ({CH2CO}-[4Pal]Y(Carboxymethyl)DWV[Bip]I[Orn][dL][Dab]LVTCK[ξPra]-NH2; thioether N-14)
15 | 9.9 nM | CCCC[C@@H]1NC(=O)[C@H](CCN)NC(=O)[C@@H](CC(C)C)NC(=O)[C@H](CCCN)NC(=O)[C@H]([C@@H](C)CC)NC(=O)[C@H](Cc2ccc(-c3ccccc3)cc2)NC(=O)[C@H](C(C)C)NC(=O)[C@H](Cc2cccc(C)c2)NC(=O)[C@H](CC(=O)O)NC(=O)[C@H](Cc2ccc(OCC(=O)O)cc2)NC(=O)[C@H](CN)NC(=O)CSC[C@@H](C(=O)N[C@@H](C)C(N)=O)NC(=O)[C@H]([C@@H](C)O)NC(=O)[C@H](C(C)C)NC1=O [Compound 1209]
